Measurements reported in the NIST ThermoML archive (doi:10.1021/je050389b).
Numbers after ± are expanded uncertainties.

Experiment: xn = mol fraction of the nth substance listed
Details: 100.5 kPa, Liquid

Structure (SMILES): CC(=O)OCCC(C)C [3-methylbutyl ethanoate] + CCO
- mass density (288.15 K, x1 = 0.05): 803.41 ± 0.23 kg/m3
- viscosity (288.15 K, x1 = 0.05): 1.22 ± 0.018 mPa·s
- mass density (288.15 K, x1 = 0.1): 811.89 ± 0.23 kg/m3
- viscosity (288.15 K, x1 = 0.1): 1.133 ± 0.017 mPa·s
- mass density (288.15 K, x1 = 0.15): 819.25 ± 0.23 kg/m3
- viscosity (288.15 K, x1 = 0.15): 1.072 ± 0.017 mPa·s
- mass density (288.15 K, x1 = 0.2): 825.81 ± 0.23 kg/m3
- viscosity (288.15 K, x1 = 0.2): 1.031 ± 0.017 mPa·s
- mass density (288.15 K, x1 = 0.25): 831.66 ± 0.23 kg/m3
- viscosity (288.15 K, x1 = 0.25): 0.996 ± 0.016 mPa·s
- mass density (288.15 K, x1 = 0.3): 836.85 ± 0.23 kg/m3
- viscosity (288.15 K, x1 = 0.3): 0.968 ± 0.016 mPa·s
- mass density (288.15 K, x1 = 0.35): 841.58 ± 0.24 kg/m3
- viscosity (288.15 K, x1 = 0.35): 0.948 ± 0.016 mPa·s
- mass density (288.15 K, x1 = 0.4): 845.81 ± 0.25 kg/m3
- viscosity (288.15 K, x1 = 0.4): 0.934 ± 0.016 mPa·s
- mass density (288.15 K, x1 = 0.45): 849.7 ± 0.25 kg/m3
- viscosity (288.15 K, x1 = 0.45): 0.924 ± 0.016 mPa·s
- mass density (288.15 K, x1 = 0.5): 853.26 ± 0.26 kg/m3
- viscosity (288.15 K, x1 = 0.5): 0.916 ± 0.016 mPa·s
- mass density (288.15 K, x1 = 0.55): 856.53 ± 0.27 kg/m3
- viscosity (288.15 K, x1 = 0.55): 0.91 ± 0.016 mPa·s
- mass density (288.15 K, x1 = 0.6): 859.57 ± 0.27 kg/m3
- viscosity (288.15 K, x1 = 0.6): 0.907 ± 0.016 mPa·s
- mass density (288.15 K, x1 = 0.65): 862.36 ± 0.28 kg/m3
- viscosity (288.15 K, x1 = 0.65): 0.908 ± 0.016 mPa·s
- mass density (288.15 K, x1 = 0.7): 865 ± 0.29 kg/m3
- viscosity (288.15 K, x1 = 0.7): 0.911 ± 0.016 mPa·s
- mass density (288.15 K, x1 = 0.75): 867.44 ± 0.3 kg/m3
- viscosity (288.15 K, x1 = 0.75): 0.912 ± 0.016 mPa·s
- mass density (288.15 K, x1 = 0.8): 869.73 ± 0.31 kg/m3
- viscosity (288.15 K, x1 = 0.8): 0.916 ± 0.016 mPa·s
- mass density (288.15 K, x1 = 0.85): 871.89 ± 0.32 kg/m3
- viscosity (288.15 K, x1 = 0.85): 0.926 ± 0.016 mPa·s
- mass density (288.15 K, x1 = 0.9): 873.95 ± 0.33 kg/m3
- viscosity (288.15 K, x1 = 0.9): 0.937 ± 0.016 mPa·s
- mass density (288.15 K, x1 = 0.95): 875.87 ± 0.34 kg/m3
- viscosity (288.15 K, x1 = 0.95): 0.939 ± 0.016 mPa·s
- mass density (288.15 K, x1 = 1): 877.72 ± 0.36 kg/m3
- viscosity (288.15 K, x1 = 1): 0.94 ± 0.016 mPa·s
- mass density (298.15 K, x1 = 0.05): 794.64 ± 0.23 kg/m3
- viscosity (298.15 K, x1 = 0.05): 1.011 ± 0.017 mPa·s
- mass density (298.15 K, x1 = 0.1): 802.92 ± 0.23 kg/m3
- viscosity (298.15 K, x1 = 0.1): 0.946 ± 0.016 mPa·s
- mass density (298.15 K, x1 = 0.15): 810.13 ± 0.23 kg/m3
- viscosity (298.15 K, x1 = 0.15): 0.902 ± 0.016 mPa·s
- mass density (298.15 K, x1 = 0.2): 816.58 ± 0.23 kg/m3
- viscosity (298.15 K, x1 = 0.2): 0.866 ± 0.016 mPa·s
- mass density (298.15 K, x1 = 0.25): 822.31 ± 0.24 kg/m3
- viscosity (298.15 K, x1 = 0.25): 0.841 ± 0.015 mPa·s
- mass density (298.15 K, x1 = 0.3): 827.42 ± 0.24 kg/m3
- viscosity (298.15 K, x1 = 0.3): 0.821 ± 0.015 mPa·s
- mass density (298.15 K, x1 = 0.35): 832.08 ± 0.24 kg/m3
- viscosity (298.15 K, x1 = 0.35): 0.805 ± 0.015 mPa·s
- mass density (298.15 K, x1 = 0.4): 836.24 ± 0.25 kg/m3
- viscosity (298.15 K, x1 = 0.4): 0.793 ± 0.015 mPa·s
- mass density (298.15 K, x1 = 0.45): 840.07 ± 0.25 kg/m3
- viscosity (298.15 K, x1 = 0.45): 0.786 ± 0.015 mPa·s
- mass density (298.15 K, x1 = 0.5): 843.59 ± 0.26 kg/m3
- viscosity (298.15 K, x1 = 0.5): 0.779 ± 0.015 mPa·s
- mass density (298.15 K, x1 = 0.55): 846.82 ± 0.27 kg/m3
- viscosity (298.15 K, x1 = 0.55): 0.776 ± 0.015 mPa·s
- mass density (298.15 K, x1 = 0.6): 849.83 ± 0.28 kg/m3
- viscosity (298.15 K, x1 = 0.6): 0.773 ± 0.015 mPa·s
- mass density (298.15 K, x1 = 0.65): 852.58 ± 0.28 kg/m3
- viscosity (298.15 K, x1 = 0.65): 0.773 ± 0.015 mPa·s
- mass density (298.15 K, x1 = 0.7): 855.21 ± 0.29 kg/m3
- viscosity (298.15 K, x1 = 0.7): 0.775 ± 0.015 mPa·s
- mass density (298.15 K, x1 = 0.75): 857.64 ± 0.3 kg/m3
- viscosity (298.15 K, x1 = 0.75): 0.78 ± 0.015 mPa·s
- mass density (298.15 K, x1 = 0.8): 859.93 ± 0.31 kg/m3
- viscosity (298.15 K, x1 = 0.8): 0.782 ± 0.015 mPa·s
- mass density (298.15 K, x1 = 0.85): 862.08 ± 0.32 kg/m3
- viscosity (298.15 K, x1 = 0.85): 0.791 ± 0.015 mPa·s
- mass density (298.15 K, x1 = 0.9): 864.14 ± 0.33 kg/m3
- viscosity (298.15 K, x1 = 0.9): 0.799 ± 0.015 mPa·s
- mass density (298.15 K, x1 = 0.95): 866.09 ± 0.34 kg/m3
- viscosity (298.15 K, x1 = 0.95): 0.804 ± 0.015 mPa·s
- mass density (298.15 K, x1 = 1): 867.91 ± 0.36 kg/m3
- viscosity (298.15 K, x1 = 1): 0.804 ± 0.015 mPa·s
